This passage reports MIC results from ChEMBL document CHEMBL1667745, “Synthesis and antibacterial evaluation of novel clarithromycin derivatives with C-4″ elongated arylalkyl groups against macrolide-resistant strains” (2011).

Holding throughout (assay type): functional
In assay [1] the test system is Streptococcus pyogenes. Description: Antimicrobial activity against erythromycin-resistant Streptococcus pyogenes R2 by broth microdilution method.
Assay [2] relates to Staphylococcus aureus. Description: Antimicrobial activity against penicillin-susceptible Staphylococcus aureus P1 by broth microdilution method.
The subject of assay [3] is Streptococcus pneumoniae. Description: Antimicrobial activity against erythromycin-resistant Streptococcus pneumoniae B1 expressing the erm gene by broth microdilution method.
The test system of assay [4] is Streptococcus pyogenes. Description: Antimicrobial activity against erythromycin-susceptible Streptococcus pyogenes S2 by broth microdilution method.
Assay [5] deals with Streptococcus pneumoniae. Description: Antimicrobial activity against erythromycin-resistant Streptococcus pneumoniae AB11 expressing the erm and mef gene by broth microdilution method.
Assay [6] relates to Staphylococcus aureus. Description: Antimicrobial activity against erythromycin-susceptible Staphylococcus aureus ATCC 25923 by broth microdilution method.
Assay [7] relates to Streptococcus pneumoniae. Description: Antimicrobial activity against erythromycin-resistant Streptococcus pneumoniae A22072 expressing the mef gene by broth microdilution method.
Assay [8] deals with Streptococcus pneumoniae. Description: Antimicrobial activity against erythromycin-susceptible Streptococcus pneumoniae ATCC 49619 by broth microdilution method.

Converted amounts (≈) assume the structure as drawn.

With `CC[C@H]1OC(=O)[C@H](C)[C@@H](O[C@H]2C[C@@](C)(OC)[C@@H](O)[C@H](C)O2)[C@H](C)[C@@H](O[C@@H]2O[C@H](C)C[C@H](N(C)C)[C@H]2O)[C@](C)(O)C[C@@H](C)C(=O)[C@H](C)[C@@H](O)[C@]1(C)O` [ERYTHROMYCIN], the MIC against Streptococcus pyogenes [1] worked out at 4 µg/mL (≈ 5.45 µM); in the assay on Staphylococcus aureus [2] it was 0.25 µg/mL (≈ 0.341 µM); against Streptococcus pneumoniae [3] it was 128 µg/mL (≈ 174 µM); against Streptococcus pyogenes [4], 0.03 µg/mL (≈ 0.0409 µM); against Streptococcus pneumoniae [5], 256 µg/mL (≈ 349 µM); against Staphylococcus aureus [6] it was 0.25 µg/mL (≈ 0.341 µM). The MIC with Streptococcus pneumoniae [7] came to 8 µg/mL (≈ 10.9 µM); against Streptococcus pneumoniae [8], 0.03 µg/mL (≈ 0.0409 µM).
